The values that follow come from patent publication US7902373B2 (Pfizer Inc, priority 2006, dated 2011).

The experiment deals with human recombinant H-PGDS (Homo sapiens, UniProt O60760). The experiment can be described thus: Fluorescence intensity h-PGDS TBA enzyme assay. The experiment is classed as biochemical. To be noted: Examples up to 622 (and 3a, 3b).
Chain of human recombinant H-PGDS (O60760 whole entry): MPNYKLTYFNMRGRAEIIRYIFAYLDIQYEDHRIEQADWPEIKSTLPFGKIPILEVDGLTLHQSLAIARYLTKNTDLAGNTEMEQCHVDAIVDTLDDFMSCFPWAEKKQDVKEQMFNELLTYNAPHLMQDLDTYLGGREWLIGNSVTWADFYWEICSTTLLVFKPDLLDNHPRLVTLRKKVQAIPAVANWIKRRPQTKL

Regarding `CN(C)c1nccc(CN2CCC(NC(=O)c3ccc(-c4cccc(F)c4)nc3)CC2)n1` [Example 392, N-(1-{[2-(Dimethylamino)pyrimidin-4-yl]methyl}piperidin-4-yl)-6-(3-fluorophenyl)nicotinamide], the IC50 (usually the concentration needed to halve the response being measured) stood at 0.849 nM.
Then `O=C(NC1CCN(Cc2cccc(F)c2)CC1)c1ccc(-c2ccccc2F)nc1` [Example 588, N-[1-(3-Fluorobenzyl)piperidin-4-yl]-6-(2-fluorophenyl)nicotinamide], with 0.621 nM.
Regarding `O=C(NC1CCN(Cc2ccnc3cccnc23)CC1)c1ccc(-c2cccc(F)c2)nc1` [Example 450, 6-(3-Fluorophenyl)-N-[1-(1,5-naphthyridin-4-ylmethyl)piperidin-4-yl]nicotinamide], the 50% inhibitory concentration (IC50) was found to be 2.05 nM.
For `COc1cc2ncc(N3CCC(NC(=O)c4ccc(-c5cccc(F)c5)nc4)CC3)nc2cc1OC` [Example 173, N-[1-(6,7-Dimethoxyquinoxalin-2-yl)piperidin-4-yl]-6-(3-fluorophenyl)nicotinamide], the half-inhibitory concentration (IC50) was 16 nM.
As for `CCOC(=O)N1CCC(NC(=O)c2ccc(-c3cccc(F)c3)nc2)CC1` [Example 32, Ethyl 4-({[6-(3-fluorophenyl)pyridin-3-yl]carbonyl}amino)piperidine-1-carboxylate], the 50% inhibitory concentration (IC50) amounted to 0.387 nM.
With `COc1cccc(-c2ccc(C(=O)NC3CCN(Cc4ccccc4)CC3)cn2)c1` [Example 17, N-(1-Benzylpiperidin-4-yl)-6-(3-methoxyphenyl)nicotinamide] the figure was 11.7 nM; with `CC(CCCC(C)(C)O)CCN1CCC(NC(=O)c2ccc(-c3cccc(F)c3)nc2)CC1` (stereo not shown) [Example 336, 6-(3-Fluorophenyl)-N-[1-(7-hydroxy-3,7-dimethyloctyl)piperidin-4-yl]nicotinamide], 1.82 nM.
With `CCC(COC)n1cnc2c(N3CCC(NC(=O)c4ccc(-c5cccc(F)c5)nc4)CC3)ncnc21` (stereo not shown) [Example 110, 6-(3-Fluorophenyl)-N-(1-{9-[1-(methoxymethyl)propyl]-9H-purin-6-yl}piperidin-4-yl)nicotinamide] the figure was 1.61 nM.
With `Cc1cccc(-c2ccc(C(=O)NC3CCN(C)CC3)cn2)c1` [Example 22, 6-(3-Methylphenyl)-N-(1-methylpiperidin-4-yl)nicotinamide] the figure was 73.3 nM.
Consider `N#Cc1ccc(C(=O)c2cccnc2N2CCC(NC(=O)c3ccc(-c4cccc(F)c4)nc3)CC2)cc1` [Example 111, N-{1-[3-(4-Cyanobenzoyl)pyridin-2-yl]piperidin-4-yl}-6-(3-fluorophenyl)nicotinamide], for which the half-inhibitory concentration (IC50) is 1.62 nM.
On to `CC(C)(C)OC(=O)N1CCCC(CN2CCC(NC(=O)c3ccc(-c4cccc(F)c4)nc3)CC2)C1` (stereo not shown) [Example 333, tert-Butyl 3-{[4-({[6-(3-fluorophenyl)pyridin-3-yl]carbonyl}amino)piperidin-1-yl]methyl}piperidine-1-carboxylate], for which the 50% inhibitory concentration (IC50) was 1.04 nM.
Regarding `O=C(NC1CCN(c2nccnc2Cc2ccccc2)CC1)c1ccc(-c2cccc(F)c2)nc1` [Example 79, N-[1-(3-Benzylpyrazin-2-yl)piperidin-4-yl]-6-(3-fluorophenyl)nicotinamide], the half-maximal inhibitory concentration (IC50) was found to be 2.28 nM.
With `O=C(NC1CCN(c2nccnc2-c2ccccc2)CC1)c1ccc(-c2cccc(F)c2)nc1` [Example 42, 6-(3-Fluorophenyl)-N-[1-(3-phenylpyrazin-2-yl)piperidin-4-yl]nicotinamide] the figure was 8.58 nM; with `O=C(NC1CCN(Cc2c[nH]c3cc(F)ccc23)CC1)c1ccc(-c2cccc(F)c2)nc1` [Example 183, N-{1-[(6-Fluoro-1H-indol-3-yl)methyl]piperidin-4-yl}-6-(3-fluorophenyl)nicotinamide], 1.12 nM.
With `C=CCN(C)C(=O)c1ccc(N2CCC(NC(=O)c3ccc(-c4cccc(F)c4)nc3)CC2)nc1` [Example 563, N-Allyl-6-[4-({[6-(3-fluorophenyl)pyridin-3-yl]carbonyl}amino)piperidin-1-yl]-N-methylnicotinamide] the figure was 0.981 nM; with `CCOc1cccc(-n2nnnc2N2CCC(NC(=O)c3ccc(-c4cccc(F)c4)nc3)CC2)c1` [Example 103, N-{1-[1-(3-Ethoxyphenyl)-1H-tetrazol-5-yl]piperidin-4-yl}-6-(3-fluorophenyl)nicotinamide], 2.15 nM.
With `COc1ccc(CN2CCC(NC(=O)c3ccc(-c4cccc(F)c4)nc3)CC2)c(OC)c1` [Example 220, N-[1-(2,4-Dimethoxybenzyl)piperidin-4-yl]-6-(3-fluorophenyl)nicotinamide] the figure was 2.42 nM; with `COc1ccc2c(N3CCC(NC(=O)c4ccc(-c5cccc(F)c5)nc4)CC3)ncnc2c1OC` [Example 122, N-[1-(7,8-Dimethoxyquinazolin-4-yl)piperidin-4-yl]-6-(3-fluorophenyl)nicotinamide], 0.168 nM.
Take `COc1ccc(C(C)N2CCC(NC(=O)c3ccc(-c4cccc(F)c4)nc3)CC2)cc1OC` (stereo not shown) [Example 536, N-{1-[1-(3,4-Dimethoxyphenyl)ethyl]piperidin-4-yl}-6-(3-fluorophenyl)nicotinamide]: the IC50 was determined as 1.75 nM.
With `CCn1nc(C)c(CN2CCC(NC(=O)c3ccc(-c4cccc(F)c4)nc3)CC2)c1C` [Example 274, N-{1-[(1-Ethyl-3,5-dimethyl-1H-pyrazol-4-yl)methyl]piperidin-4-yl}-6-(3-fluorophenyl)nicotinamide], the IC50 stood at 2.57 nM.
With `CC(C)(C)OC(=O)c1ccc(N2CCC(NC(=O)c3ccc(-c4cccc(F)c4)nc3)CC2)nc1` [Example 559, tert-Butyl 6-[4-({[6-(3-fluorophenyl)pyridin-3-yl]carbonyl}amino)piperidin-1-yl]nicotinate] the figure was 10.6 nM; with `O=C(NC1CCN(Cc2cccc(F)c2F)CC1)c1ccc(-c2cccc(F)c2)nc1` [Example 240, N-[1-(2,3-Difluorobenzyl)piperidin-4-yl]-6-(3-fluorophenyl)nicotinamide], 0.181 nM.
With `Cc1c(CN2CCC(NC(=O)c3ccc(-c4cccc(F)c4)nc3)CC2)cnn1-c1ccccc1` [Example 356, 6-(3-Fluorophenyl)-N-{1-[(5-methyl-1-phenyl-1H-pyrazol-4-yl)methyl]piperidin-4-yl}nicotinamide] the figure was 2 nM; with `O=C(NC1CCN(c2ncc3ccccc3n2)CC1)c1ccc(-c2cccc(F)c2)nc1` [Example 166, 6-(3-Fluorophenyl)-N-(1-quinazolin-2-ylpiperidin-4-yl)nicotinamide], 3.44 nM; with `Cc1nn(C)c(C)c1CN1CCC(NC(=O)c2ccc(-c3cccc(F)c3)nc2)CC1` [Example 250, 6-(3-Fluorophenyl)-N-{1-[(1,3-trimethyl-1H-pyrazol-4-yl)methyl]piperidin-4-yl}nicotinamide], 0.409 nM.
With `O=C(NC1CCN(c2ccc(C(=O)NCCN3CCOCC3)nn2)CC1)c1ccc(-c2cccc(F)c2)nc1` [Example 84, 6-[4-({[6-(3-Fluorophenyl)pyridin-3-yl]carbonyl}amino)piperidin-1-yl]-N-(2-morpholin-4-ylethyl)pyridazine-3-carboxamide] the figure was 0.635 nM; with `Cn1c(-c2cccc(C#N)c2)nc2c(N3CCC(NC(=O)c4ccc(-c5cccc(F)c5)nc4)CC3)ncnc21` [Example 161, N-{1-[8-(3-Cyanophenyl)-9-methyl-9H-purin-6-yl]piperidin-4-yl}-6-(3-fluorophenyl)nicotinamide], 3.85 nM.
Take `O=C(NC1CCN(Cc2cccc(-c3cncnc3)c2)CC1)c1ccc(-c2cccc(F)c2)nc1` [Example 381, 6-(3-Fluorophenyl)-N-[1-(3-pyrimidin-5-ylbenzyl)piperidin-4-yl]nicotinamide]: the 50% inhibitory concentration (IC50) amounted to 0.0854 nM.
Regarding `CCOC(=O)c1cccc(-n2nnnc2N2CCC(NC(=O)c3ccc(-c4cccc(F)c4)nc3)CC2)c1` [Example 98, Ethyl 3-{5-[4-({[6-(3-fluorophenyl)pyridin-3-yl]carbonyl}amino)piperidin-1-yl]-1H-tetrazol-1-yl}benzoate], the 50% inhibitory concentration (IC50) came out at 3.7 nM.
`O=C(NC1CN(c2cnc3ccccc3n2)C1)c1ccc(-c2cccc(F)c2)nc1` [Example 605, 6-(3-Fluorophenyl)-N-(1-quinoxalin-2-ylazetidin-3-yl)nicotinamide]: the IC50 is 2.9 nM.
For `COc1ccc(CC2CC(NC(=O)c3ccc(-c4cccc(F)c4)nc3)CCN2)cc1OC` (stereo not shown) [Example 212, N-[2-(3,4-Dimethoxybenzyl)piperidin-4-yl]-6-(3-fluorophenyl)nicotinamide], the IC50 came to 1.4 nM.
Then `O=C(NC1CCN(Cc2ccnc3ncccc23)CC1)c1ccc(-c2cccc(F)c2)nc1` [Example 452, 6-(3-Fluorophenyl)-N-[1-(1,8-naphthyridin-4-ylmethyl)piperidin-4-yl]nicotinamide], with 0.724 nM.
Then `N#Cc1ccc(CN2CCC(NC(=O)c3ccc(-c4cccc(F)c4)nc3)CC2)cc1` [Example 227, N-[1-(4-Cyanobenzyl)piperidin-4-yl]-6-(3-fluorophenyl)nicotinamide], with 0.815 nM; and `CC(CO)N(C)C(=O)c1ccc(N2CCC(NC(=O)c3ccc(-c4cccc(F)c4)nc3)CC2)nc1` (stereo not shown) [Example 567, 6-[4-({[6-(3-Fluorophenyl)pyridin-3-yl]carbonyl}amino)piperidin-1-yl]-N-(2-hydroxy-1-methylethyl)-N-methylnicotinamide], with 0.867 nM; and `CCn1ncc(CN2CCC(NC(=O)c3ccc(-c4cccc(F)c4)nc3)CC2)c1C` [Example 329, N-{1-[(1-Ethyl-5-methyl-1H-pyrazol-4-yl)methyl]piperidin-4-yl}-6-(3-fluorophenyl)nicotinamide], with 1.94 nM.
For the compound `CC(C)Oc1ccccc1CN1CCC(NC(=O)c2ccc(-c3cccc(F)c3)nc2)CC1` [Example 326, 6-(3-Fluorophenyl)-N-[1-(2-isopropoxybenzyl)piperidin-4-yl]nicotinamide], the 50% inhibitory concentration (IC50) is 2.45 nM.
With `O=C(NC1CCN(Cc2ccccn2)CC1)c1ccc(-c2ccc(F)cc2)nc1` [Example 11, 6-(4-Fluorophenyl)-N-[1-(pyridin-2-ylmethyl)piperidin-4-yl]nicotinamide] the figure was 39.4 nM.
